Experimental data: US20110217241A1, “CONJUGATES OF 19F MR IMAGING TRACERS FOR USE IN MULTI-CHROMIC MRI IMAGING” (University of Maryland, Baltimore, priority 2008, published 2011)

Columns and labels:
[1] = 19F resonance frequency (chemical shift) with different metal ions; type: physicochemical; conditions: FIG. 6
From the text: In FIG. 6, the darker bars indicate paramagnetic ion complexes and the lighter bars indicate diamagnetic complexes. As shown in the graph of FIG. 6, the different metal ions led to different ^19F resonance frequencies, ranging from δ(^19FIT-Bi^3+)=−71.17 ppm to δ(^19FIT-Tb^3+)=−63.32 ppm. In each case, there was a single ^19F signal.

[2] = 19F relaxation times (T1, T2) under different solution conditions; type: physicochemical; conditions: for Relaxation Times T1 / Relaxation Times T2 / T1 percentage relative to T1 under Condition 1 / T2 percentage relative to T2 under Condition 1: pH 7, 50 mM; for Relaxation Times T1 / Relaxation Times T2 / pH dependency of 19F relaxation times T1 and T2: 11.7 Tesla; for pH dependency of 19F relaxation times T1 and T2: pH 6, 7 & 8
Procedure: The ^19F T1 and T2 were determined under different solution conditions for the paramagnetic ^19FIT-Gd^3+ and for the diamagnetic ^19FIT-Y^3+ from the above example (and shown in FIG. 6). The conditions and results are summarized below in Table 1. The percentage numbers for Conditions 2-5 were calculated relative to T1 or T2 under Condition 1. […] For example, the weakly paramagnetic O2 had little effect on the ^19F T1 and T2 of ^19FIT-Gd^3+.
19F T1 and T2 were also determined for ^19FIT-Gd^3+ and ^19FIT-Y^3+ at different pH values (pH 6 7 & 8). […] The NMR field strength for the testing was 11.7 Tesla.

[3] = Condition 1: PBS buffer saturated with N2, 25° C.
[4] = Condition 2: PBS buffer saturated with O2, 25° C.
[5] = Condition 3: PBS buffer saturated with N2, 45° C.
[6] = Condition 4: Human sera with 10% D2O saturated with N2, 25° C.
[7] = Condition 5: 10% w/v bovine serum albumin in PBS buffer saturated with N2, 25° C.

Row | SMILES | 19F resonance frequency δ [1] | Relaxation Times T1 [2, 3] | Relaxation Times T2 [2, 3] | T1 percentage relative to T1 under Condition 1 [2, 4] | T2 percentage relative to T2 under Condition 1 [2, 4] | Relaxation Times T1 [2, 4] | Relaxation Times T2 [2, 4] | T1 percentage relative to T1 under Condition 1 [2, 5] | T2 percentage relative to T2 under Condition 1 [2, 5] | Relaxation Times T1 [2, 5] | Relaxation Times T2 [2, 5] | T1 percentage relative to T1 under Condition 1 [2, 6] | T2 percentage relative to T2 under Condition 1 [2, 6] | Relaxation Times T1 [2, 6] | Relaxation Times T2 [2, 6] | T1 percentage relative to T1 under Condition 1 [2, 7] | T2 percentage relative to T2 under Condition 1 [2, 7] | Relaxation Times T1 [2, 7] | Relaxation Times T2 [2, 7] | pH dependency of 19F relaxation times T1 and T2 [2] | further results
1 | O=C([O-])CN1CCN(CC(=O)[O-])CCN(CC(=O)NCCOCCOCCOCCOC(C(F)(F)F)(C(F)(F)F)C(F)(F)F)CCN(CC(=O)[O-])CC1.[Bi+3] [^19FIT-Bi^3+] | −71.17 ppm | – | – | – | – | – | – | – | – | – | – | – | – | – | – | – | – | – | – | – | –
2 | O=C([O-])CN1CCN(CC(=O)[O-])CCN(CC(=O)NCCOCCOCCOCCOC(C(F)(F)F)(C(F)(F)F)C(F)(F)F)CCN(CC(=O)[O-])CC1.[Gd+3] [^19FIT-Gd^3+] | – | 4.24 ms | 1.66 ms | (−0.7%) | (−6.0%) | 4.27 ms | 1.56 ms | (−6.4%) | (−26.5%) | 3.97 ms | 1.22 ms | (−0.7%) | (−48.2%) | 4.27 ms | 0.86 ms | (6.6%) | (−66.9%) | 4.52 ms | 0.55 ms | neither complex showed significant pH dependency | effect of weakly paramagnetic O2 on 19F T1 and T2 ([2]; Condition 2 vs Condition 1): little effect
3 | O=C([O-])CN1CCN(CC(=O)[O-])CCN(CC(=O)NCCOCCOCCOCCOC(C(F)(F)F)(C(F)(F)F)C(F)(F)F)CCN(CC(=O)[O-])CC1.[Tb+3] [^19FIT-Tb^3+] | −63.32 ppm | – | – | – | – | – | – | – | – | – | – | – | – | – | – | – | – | – | – | – | –
4 | O=C([O-])CN1CCN(CC(=O)[O-])CCN(CC(=O)NCCOCCOCCOCCOC(C(F)(F)F)(C(F)(F)F)C(F)(F)F)CCN(CC(=O)[O-])CC1.[Y+3] [^19FIT-Y^3+] | – | 1498 ms | 1057 ms | (−28.3%) | (−37.1%) | 1074 ms | 665 ms | (42.4%) | (43.0%) | 2133 ms | 1511 ms | (−19.2%) | (−79.8%) | 1211 ms | 214 ms | (−19.9%) | (−86.8%) | 1200 ms | 139 ms | neither complex showed significant pH dependency | –
